The record followed here is BindingDB's records for doi:10.7270/Q2BV7F1T (Pcmd, 2008).

For this test, the target named is T1, DNA repair protein RAD51 homolog 1 (Homo sapiens, UniProt Q06609).
T1 sequence (Q06609 whole entry): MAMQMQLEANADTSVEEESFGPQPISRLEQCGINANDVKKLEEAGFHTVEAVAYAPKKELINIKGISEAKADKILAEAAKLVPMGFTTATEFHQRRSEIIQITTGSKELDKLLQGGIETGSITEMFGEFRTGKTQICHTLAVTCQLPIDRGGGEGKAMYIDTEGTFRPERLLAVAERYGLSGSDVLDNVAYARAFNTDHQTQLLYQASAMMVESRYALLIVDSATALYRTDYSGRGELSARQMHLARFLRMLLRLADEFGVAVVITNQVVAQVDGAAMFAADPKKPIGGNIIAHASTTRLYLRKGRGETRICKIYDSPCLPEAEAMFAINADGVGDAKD
Description: RAD51 recombination inhibitor potency, dose response, biochemical, homologous recombination, fluorescence (AID 1435).

The mark [1] stands for this setting: inactive by the depositor's call.

Molecules are shown by their SMILES.

In general, IC50 refers to the concentration that inhibits the measured activity by half. For `Cn1cc(NC(=O)c2cc(NC(=O)c3cc(NC=O)cn3C)cn2C)cc1C(=O)NCCC(=N)N`, the IC50 was found to be 6.37 µM. As for `CCOc1ccc(OCC)c(NC(=O)C2CCN(c3ncccn3)CC2)c1`, the IC50 under setting [1] was found to be 42.5 µM.

As to `CCOc1ccccc1C(=O)Nc1nccs1`, the IC50 is > 85 µM. On to `CC1=CC(C)C(COC(N)=O)(COC(N)=O)C(C)C1` (stereo unspecified), for which the half-maximal inhibitory concentration (IC50) is > 85 µM. As for `Cc1[nH]nc2c1C(=O)CCC2`, the IC50 is > 85 µM. Take `CCOC(=O)N1CCN(C(=O)CSCC(=O)N=c2sc3ccccc3n2C)CC1`: under setting [1], the IC50 was found to be 42.5 µM. For the compound `O=C(CSc1ncn(-c2ccccc2)n1)c1cccs1`, the IC50 was > 85 µM. Same read-out and setting: as for `CCOC(=O)C(NC(C)=O)(Nc1ccc(S(=O)(=O)Nc2cc(C)on2)cc1)C(F)(F)F` (stereo unspecified), the figure is > 85 µM; as for `CCC(=O)Nc1nc(=S)ss1`, > 85 µM.

Turning to `COc1ccc(S(=O)(=O)NC(C)C(=O)Nc2ccccc2C(F)(F)F)cc1` (stereo unspecified), the concentration for half-maximal inhibition (IC50) was > 85 µM. Same read-out and setting: to `CCCCNC(=S)NNC(=O)C12CC3CC(CC(C3)C1)C2` belongs > 85 µM; to `Cc1cc(O)c(C=O)c2c1C(=O)Oc1c(CO)c(O)c3c(c1O2)C(O)OC3=O` (stereo unspecified) [1,4,10-Trihydroxy-5-hydroxymethyl-8-methyl-3,7-dioxo-1,3-dihydro-7H-benzo[e]furo[3'''',4'''':3,4]benzo[b][1,4]dioxepine-11-carbaldehyde], 8.02 µM. On the same count and under the same terms, to `COc1cc(C)c2c(c1C=O)Oc1c(c(C)c(O)c3c1C(O)OC3=O)OC2=O` (stereo unspecified) [1,4-Dihydroxy-10-methoxy-5,8-dimethyl-3,7-dioxo-1,3-dihydro-7H-benzo[e]furo[3',4':3,4]benzo[b][1,4]dioxepine-11-carbaldehyde] belongs 8.74 µM; to `CCOC(=O)C1CCN(C(=O)c2ccco2)CC1` [1-(2-furoyl)isonipecotic acid ethyl ester], > 85 µM. Same read-out and setting: to `Cc1ccccc1NC(=O)NCC1CCCO1` (stereo unspecified) [1-(2-methylphenyl)-3-(oxolan-2-ylmethyl)urea] belongs > 85 µM.

Take `CCOC(=O)C1CCCN(S(=O)(=O)c2ccc(OC)cc2)C1` (stereo unspecified) [1-(4-methoxyphenyl)sulfonyl-3-piperidinecarboxylic acid ethyl ester]: the IC50 is > 85 µM. As for `O=C(CSc1nnc(Cc2ccccc2)o1)N1CCc2ccccc21` [1-{[(5-benzyl-1,3,4-oxadiazol-2-yl)thio]acetyl}indoline], the IC50 is > 85 µM.

Take `O=c1cc(-c2ccccc2Cl)oc2ccc([N+](=O)[O-])c(O)c12` [2-(2-chlorophenyl)-5-hydroxy-6-nitrochromen-4-one]: the concentration for half-maximal inhibition (IC50) is > 85 µM. The same measure, in the same setting: as for `C=CCNc1oc(-c2ccc(OC)cc2)nc1C#N` [2-(4-methoxyphenyl)-5-(prop-2-enylamino)-1,3-oxazole-4-carbonitrile], the figure is > 85 µM. `CCCCC(Nc1ncnc2ccccc12)C(=O)O` (stereo unspecified) [2-(4-quinazolinylamino)hexanoic acid]: under setting [1], the IC50 was found to be 42.5 µM. Consider `CCOC(=O)Cn1c(=O)c2c(nc(N3CCCCC3)n2Cc2ccccc2)n(C)c1=O` [2-(7-benzyl-2,6-diketo-3-methyl-8-piperidino-purin-1-yl)acetic acid ethyl ester], for which the IC50 was > 85 µM. Further, under setting [1], the IC50 stood at 1.4 µM. Take `CCN(CC)S(=O)(=O)c1ccc2c(c1)nc(SC(C)C(N)=O)n2-c1ccc(OC)cc1` (stereo unspecified) [2-[5-(diethylsulfamoyl)-1-(4-methoxyphenyl)benzimidazol-2-yl]sulfanylpropanamide]: the IC50 came out at 34.8 µM. The same measure, in the same setting: as for `O=C(CSCc1ccc(F)cc1)Nc1nc2c(s1)CCCC2` [2-[(4-fluorobenzyl)thio]-N-(4,5,6,7-tetrahydro-1,3-benzothiazol-2-yl)acetamide], the figure is > 85 µM; as for `COc1cc(CN2CCN(c3ccc(C)cc3)CC2)cc([N+](=O)[O-])c1O` [2-methoxy-4-[[4-(4-methylphenyl)-1-piperazinyl]methyl]-6-nitrophenol], > 85 µM; as for `CCOC(=O)C1(C(=O)OCC)CC1c1ccccc1` (stereo unspecified) [2-phenylcyclopropane-1,1-dicarboxylic acid diethyl ester], > 85 µM. Regarding `O=P(OCC(F)(F)C(F)F)(N1CCOCC1)N1CCOCC1` [4-[morpholin-4-yl(2,2,3,3-tetrafluoropropoxy)phosphoryl]morpholine], under setting [1], the IC50 came out at 42.5 µM. Same read-out and setting: to `COC(=O)c1cc2n(n1)CCN(Cc1ccc(F)cc1)C2=O` [5-(4-fluorobenzyl)-4-keto-6,7-dihydropyrazolo[1,5-a]pyrazine-2-carboxylic acid methyl ester] belongs 42.5 µM. In the case of `CCCCCOCC1CC(CC(C)N=Nc2nc(-c3ccccc3)cs2)C(=O)O1` (stereo unspecified) [5-(amoxymethyl)-3-[2-[(4-phenylthiazol-2-yl)hydrazono]propyl]tetrahydrofuran-2-one], the IC50 was > 85 µM.

As to `Cc1cc(C(=O)Nc2cccnc2)cs1` [5-methyl-N-pyridin-3-yl-thiophene-3-carboxamide], the IC50 was > 85 µM. Still for that read-out and setting: to `Cc1cc2nc3c(nc2cc1C)C1(C(=O)O)CCC3(C)C1(C)C` (stereo unspecified) [6,7,12,15,15-pentamethyl-3,10-diazatetracyclo[10.2.1.0~2,11~.0~4,9~]pentadeca-2(11),3,5,7,9-pentaene-1-carboxylic acid] belongs 37.1 µM; to `FC(F)(F)c1nnc2ccc(N3CCCC3)nn12` [6-(1-pyrrolidinyl)-3-(trifluoromethyl)[1,2,4]triazolo[4,3-b]pyridazine], > 85 µM. On to `CCOC(=O)CN1C(=O)N[C@@H](CCc2ccccc2)[C@@H](C(=O)OC)[C@H]1C` [CMLD004122], for which, under setting [1], the half-inhibitory concentration (IC50) is 42.5 µM. Consider `O=C(c1ccc2ccccc2n1)N1CCN(c2ccccc2O)CC1` [Glucosamine derivative, 2], for which the IC50 was > 85 µM. For the compound `O=C(NC1CCCCC1)c1cc([N+](=O)[O-])ccc1N1CCCCC1` [Glucosamine derivative, 8], under setting [1], the IC50 was 42.5 µM.

Regarding `COc1cccc2c1C(=O)c1c(O)c3c(c(O)c1C2=O)C[C@@](O)(C(=O)CO)C[C@@H]3O[C@H]1C[C@H](N)[C@H](O)[C@H](C)O1` [MLS000028393], the IC50 is > 85 µM. Still for that read-out and setting: as for `CN1CCN(C2=C(Cl)C(=O)N(Cc3ccccc3)C2=O)CC1` [MLS000030834], the figure is > 85 µM. Regarding `Cc1ccc(/C(C#N)=C\c2cn(C)c3ccccc23)cc1` [MLS000051428], the IC50 under setting [1] came to 42.5 µM. Take `O=C(CN1C(=O)C2CC=CCC2C1=O)Nc1nccs1` (stereo unspecified) [MLS000054855]: under setting [1], the IC50 was 42.5 µM. Still for that read-out and setting: to `CC(=O)Nn1c(-c2ccccc2)cc2ccccc21` [MLS000082684] belongs 42.5 µM. Turning to `O=c1[nH]c(N2CCN(Cc3ccc4c(c3)OCO4)CC2)nc2c1CCC2` [MLS000100276], the IC50 is > 85 µM. On to `COC(=O)CCC(=O)OC1(C)C(=O)C2=CN(C3CC3)C(c3ccc(OC)cc3)=CC2=C(Br)C1=O` (stereo unspecified) [MLS000438679], for which the IC50 under setting [1] is 42.5 µM. Take `O=C(O)/C=C/c1cn(Cc2ccccc2)nc1-c1ccccc1` [MLS000567315]: the IC50 is > 85 µM. On the same count and under the same terms, as for `O=C(Nc1ccc(-c2nc3ccccc3o2)cc1)c1ccc2c(c1)OCO2` [N-[4-(1,3-benzoxazol-2-yl)phenyl]-1,3-benzodioxole-5-carboxamide], the figure is > 85 µM; as for `CC1CCCC(C)N1S(=O)(=O)c1ccc(NC(=O)CCn2cnc3ccccc3c2=O)cc1` (stereo unspecified) [N-[4-(2,6-dimethylpiperidin-1-yl)sulfonylphenyl]-3-(4-oxoquinazolin-3-yl)propanamide], > 85 µM. On the same count and under the same terms, as for `O=S(=O)(Nc1ccc(O)c(CN2CCCCC2)c1)c1ccccc1` [N-[4-oxidanyl-3-(piperidin-1-ylmethyl)phenyl]benzenesulfonamide], the figure is > 85 µM. Still for that read-out and setting: to `CC(C)CC(=O)/N=C(\N)Nc1nc2ccccc2s1` [N-[(E)-N''''-(1,3-benzothiazol-2-yl)carbamimidoyl]-3-methylbutanamide] belongs > 85 µM; to `Cc1ccc(C(=O)COc2cccc(NC(=O)c3ccco3)c2)cc1` [N-{3-[2-(4-methylphenyl)-2-oxoethoxy]phenyl}-2-furamide], > 85 µM; to `CCCOc1ccccc1N=C(NC(=O)COc1ccc(OC)cc1)Nc1nc(C)cc(C)n1` [N-{[(4,6-dimethyl-2-pyrimidinyl)amino][(2-propoxyphenyl)amino]methylene}-2-(4-methoxyphenoxy)acetamide], > 85 µM. On to `COc1cc(C(=O)O)c2c(c1C)OC(=O)c1c(C)cc(O)c(C=O)c1O2` [NSC-92186], for which the IC50 is 5.45 µM. Still for that read-out and setting: as for `COCCn1c(=NC(=O)CSC(C)=O)sc2cc(F)ccc21` [S-[2-[[6-fluoranyl-3-(2-methoxyethyl)-1,3-benzothiazol-2-ylidene]amino]-2-oxidanylidene-ethyl] ethanethioate], the figure is > 85 µM; as for `Cc1onc(-c2c(Cl)cccc2Cl)c1C(=O)Nn1cnnc1` [SMR000009301], > 85 µM; as for `CCC1(C)Nc2ccccc2C(=O)N1O` (stereo unspecified) [SMR000024795], > 85 µM. For the compound `CN1CCN(C(=O)c2ccc(S(=O)(=O)c3ccc(Br)cc3)cc2)CC1` [SMR000041005], the IC50 is > 85 µM. On to `Cc1cc(C)n(-c2nc3c(c(=O)[nH]c(=O)n3C)n2Cc2ccc(F)cc2)n1` [SMR000046638], for which the IC50 is > 85 µM. As for `CCOC(=O)C1CCN(CC(=O)Nc2c(C(=O)OC)n(C)c3cccc(C)c23)CC1` [SMR000046840], the IC50 is > 85 µM. Regarding `O=C(CN1C(=O)c2ccccc2S1(=O)=O)Nc1ccc(S(=O)(=O)N2CCCCC2)cc1` [SMR000074755], the IC50 under setting [1] worked out at 42.5 µM. As for `CCC(CC)c1nnc(NS(=O)(=O)Cc2ccccc2)s1` [SMR000074911], the IC50 was > 85 µM. Turning to `OC(COc1ccc2c(c1)CCC2)Cn1cnc2ccccc21` (stereo unspecified) [SMR000082144], the IC50 is > 85 µM. Still for that read-out and setting: to `O=C(CN(Cc1ccco1)C(=O)CCC(=O)Nc1nccs1)NCc1ccccc1` [SMR000117995] belongs > 85 µM. For `CC1(C)CC(=O)C=C(NNC(=O)c2ccccc2O)C1` [SMR000185773], the half-inhibitory concentration (IC50) under setting [1] stood at 42.5 µM.
